The results in this text go back to PMC4434572, “Identification of novel drugs to target dormant micrometastases” (BMC Cancer, 2015).

Where two headings read alike, the source gives them in different places.

Data set [1] relates to MDA-MB-435 cells. As to the kind of experiment: Proliferation (CFDA-AM esterase assay) of cells grown on SISgel, plastic or Matrigel, 48 h drug exposure. It counts as cell-based. To be noted: for SI (EC50-P/EC50-S): ratio of EC50 on plastic versus SISgel. An excerpt:
(§1) The libraries were obtained from the NCI (Diversity Library I) comprised of 2,918 compounds and a 10,000 compound diversity library from ChemBridge, Inc. (DiverSet-EXP). The NCI library is no longer available in the form used here, but how it was constructed is described (http://dtp.nci.nih.gov/branches/dscb/diversity_explanation.html). The ChemBridge library is a subset (Set Code NM1024) of the full 50,000 compound library (http://www.chembridge.com/screening_libraries/diversity_libraries/). Compounds were diluted to 100 μM before use. SISgel was prepared as described previously from powdered porcine small intestine submucosa obtained from Cook Biotech (W. Lafayette, IN). It is a natural product that is used extensively in tissue engineering as a bioscaffold. J82 bladder cancer cells and other cell lines were obtained from the ATCC (Bethesda, MD). The basic principle is that cells grown on any ECM are, in general, expected to show higher resistance to anticancer compounds than when grown on plastic. Therefore, compounds that show a higher activity toward cancer cells on a normal ECM than on a plastic surface would be candidates to target suppressed, micrometastatic cells. Efficacy in vitro was assessed by plating 30,000 cells in 50 μL of high glucose DMEM with penicillin-streptomycin and 10 % fetal calf serum on SISgel in a 96-well plate containing 50 μL of gelled SISgel per well. Cells were allowed to attach and assume the SISgel phenotype for 48 h. A matching plate without SISgel was prepared 24 h later by pipetting 3,000 cells in 100 μL of high glucose DMEM with penicillin-streptomycin and 10 % fetal calf serum into each well of 96 well plate. The cells were allowed to attach and grow for 24 h. These numbers of cells gave approximately equal replication rates at the time drug was added for cells grown on the plastic surface or SISgel as determined by the fraction of S-phase cells identified by flow cytometry. The cells were exposed to drug in fresh medium for 48 h, at which time the cell number was determined using the CFDA-AM cellular esterase proliferation assay (cat. #C1354, Life Technologies). For screening the results are reported as the ratio of cell count of cells on the plastic surface to the cell count on SISgel. An initial difference of 1.5 fold identified potential hits. All potential hits were confirmed in triplicate. Those compounds that replicated were confirmed by a full dose–response study yielding an EC50 using five wells per drug concentration. Data were analyzed using nonlinear regression to a sigmoid curve with Prism 4 (GraphPad Software, Inc., LaJolla, CA). Potential hits that were confirmed by dose–response using J82 were also tested with MDA-MB-435 breast cancer, PC-3 metastatic prostate cancer, Capan1 pancreatic cancer and the J82 bladder cancer cell lines.

Data set [2] relates to cancer cells on SISgel or plastic. As to the kind of experiment: Activity of leads and analogs on cancer cells grown on plastic vs SISgel (cell line not stated). It counts as cell-based. To be noted: for Hit: YES/NO; for SR: ratio IC50-p/IC50-S. The gist of the method: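 Cells on SISgel (30,000/well, 48 h attachment) or plastic (3,000/well, 24 h) were exposed to compound (diluted to 100 μM) for 48 h in high-glucose DMEM with 10 % FCS. Cell number quantified by CFDA-AM esterase assay; results given as plastic:SISgel cell-count ratio, hits confirmed in triplicate, curves fitted sigmoidally.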

The subject of data set [3] is mice. The data set can be described thus: Toxicity / maximum tolerated dose in mice. The conditions noted are these: for NOAEL dose, osmotic pump: Alzet #2004 osmotic pump, 4 weeks; for MTD / toxicity in mice: mice.
Data set [4] deals with MDA-MB-231 (breast). The data set can be described thus: Proliferation EC50 on SISgel vs monolayer. It counts as cell-based. To be noted: n = 6-8.
For data set [5], the system named is PC-3 (prostate). The data set can be described thus: Proliferation EC50 on SISgel vs monolayer. The conditions noted are these: n = 6-8. It counts as cell-based.
Excerpt: as §1

Setting [6] is: MDA-MB-435 cells on SISgel, read-out: EC50-S.
Where [7] appears, read: MDA-MB-435 cells on plastic, read-out: EC50-P.
[8] abbreviates: cells on SISgel, read-out: IC50-S.
Setting [9] is: cells on plastic, read-out: IC50-p.
[10] abbreviates: PC-3 monolayer, read-out: EC50 Monolayer.
Where [11] appears, read: PC-3 on SISgel, read-out: EC50 SISgel.

As a reminder, the EC50 is the concentration that produces a half-maximal response. What is called IC50 is the concentration at which inhibition is half-maximal. By MTD is commonly meant the highest dose tested that stayed within the study's limit of toxicity. Low readings indicate poorer tolerability, high ones better tolerability. As for `O=S(=O)([O-])c1ccc2c(N=Nc3cccc4ccccc34)c(O)c(S(=O)(=O)[O-])cc2c1.[Na+].[Na+]` [DT310, 4-(1-naphthalenylhydrazinylidene) -3-oxonaphthalene-2,7-disulfonic acid], the EC50 in data set [1] (setting [6]) is 35.9 µM. Besides, the EC50 in data set [1] (setting [7]) stood at 86.5 µM. Moreover, the “SI (EC50-P/EC50-S)” value in data set [1] stood at 2.4. For the same compound, in data set [2], the Hit result is recorded as “YES” and the SR was determined as 2.4. Moreover, the IC50 in data set [2] (setting [8]) was found to be 36 µM. Also, in data set [2] (setting [9]), the IC50 stood at 87 µM. Also, in data set [3], the “NOAEL dose, osmotic pump” value was determined as 23.4 µg/h; the MTD worked out at 65 mg/kg; the “toxicity in mice” value was “very low toxicity”.
With `O=S(=O)([O-])c1cc(O)c2c(O)c(N=Nc3cccc4ccccc34)c(S(=O)(=O)[O-])cc2c1.[Na+].[Na+]` [DT320, 4,5-Dihydroxy-3-(1-naphthalenylazo)-2,7-naphthalenedisulfonic acid disodium salt], the EC50 in data set [1] (setting [6]) was 8.7 µM; in data set [1] (setting [7]), 78 µM; in data set [4] (MDA-MB-231 monolayer, read-out: EC50 Monolayer), 78.1 ± 7.1 µM; in data set [4] (MDA-MB-231 on SISgel, read-out: EC50 SISgel), 8.7 ± 1.1 µM; in data set [5] (setting [10]), 41.5 ± 4.1 µM; in data set [5] (setting [11]), 19.7 ± 2 µM. For the same compound, the Ratio in data set [1] (Matrigel/SISgel EC50, MDA-MB-435) was found to be 2.4. Also, in data set [1], the “SI (EC50-P/EC50-S)” value was 9.0. For the same compound, in data set [2], the Hit result is recorded as “YES”. The IC50 in data set [2] (setting [8]) was 9 µM; in data set [2] (setting [9]), 78 µM. Also, in data set [2], the SR is 9.0. In data set [3], the “NOAEL dose, osmotic pump” value came to 26.7 µg/h. In data set [3], this compound had a maximum tolerated dose (MTD) of 75 mg/kg. Besides, in data set [3], the “toxicity in mice” value is recorded as “very low toxicity”.
Regarding `COc1cccc2c1C(=O)c1c(O)c3c(c(O)c1C2=O)C[C@@](O)(C(=O)CO)C[C@@H]3O[C@H]1C[C@H](N)[C@H](O)[C@H](C)O1` [Doxorubicin, reference compound], the EC50 amounted to 45.4 µM in data set [1] (Homo sapiens, MDA-MB-435 cells on SISgel, read-out: EC50-S); 47.8 µM in data set [1] (Homo sapiens, MDA-MB-435 cells on plastic, read-out: EC50-P); 45.4 ± 1.9 µM in data set [4] (Homo sapiens, MDA-MB-231 monolayer, read-out: EC50 Monolayer); 47.8 ± 4 µM in data set [4] (Homo sapiens, MDA-MB-231 on SISgel, read-out: EC50 SISgel); 104 ± 6.1 µM in data set [5] (setting [10]); 102 ± 7 µM in data set [5] (setting [11]). In data set [1], the “SI (EC50-P/EC50-S)” value is listed as 1.05.
